Results published in publication PMC7060258 (Scientific Reports, 2020).
No end group written: not given here.

Tests used:
α-chymotrypsin = assay: SPR interaction with α-chymotrypsin; format: binding; conditions: for SPR binding to α-chymotrypsin (in words): peptide immobilized on CM4 chip
Procedure: (§1) The interaction of the peptides with serine proteinases (trypsin, α-chymotrypsin, human neutrophil elastase, pancreatic kallikrein and cathepsin G) was studied using the surface plasmon resonance (SPR) method. The peptides were immobilized on a CM4 sensor chip. […] Kinetic parameters were calculated at 25 °C. Obtained data indicated the formation of tight complexes and eliminated non-specific binding (Table 2).
(§2) The study of the interaction of serine proteinases with rHCIQ2c1 and rHCIQ4c7 was performed on SPR biosensor Biacore 3000 (GE Healthcare, USA) running under the program “Biacore 3000 Control Software v.1.0”. The evaluation of data was carried out using “Biacore Evaluation v.4.1”. Peptides were covalent immobilized on carboxymethylated surface of the Biacore CM4 sensor chip (GE Healthcare, USA) activated by EDC/NHS (N-hydroxysuccinimide/1-ethyl-3-(3-dimethylaminopropyl)carbodiimide hydrochloride) mixture by the injection of peptide solution (100 µg/ml) in 10 mM sodium acetate (pH 5.5) during 10 min with flow rate 5 µl/min. Quantities of immobilized peptides were 970 RU (resonance units, 1 RU corresponds 1 pg peptide) for rHCIQ2c1 and 460 RU for rHCIQ4c7. In all of the experiments, the flow cell 1 (Fc1) without the immobilized polypeptides was considered as the reference cell for the correction of the signal responses. HBS (HEPES buffered saline-NaCl): 0.15 M NaCl, 0.01 M HEPES, pH 7.4 (cat. no. BR-1003-69, GE Healthcare, USA) was used as the running buffer for the SPR assays. Protease solutions at concentrations from 1 nM to 5 μM were passed through measuring and control biosensor cells at 25 °C during 5 min with a flow rate 5 µl/min. Further complex breakdown was recorded during at most 10 min. After each cycle of SPR measurement, the sensing surface was regenerated by the injection of 50 mM NaOH for 0.5 min at a flow rate of 50 μl/min. Changes in Gibbs free energy (ΔG) at 25 °C were calculated by the following equation:1 ΔG=RTlnKD, where KD is the dissociation constant. Changes in enthalpy (ΔH) and entropic term (−TΔS) were calculated from the linear equation:2 ΔG=ΔH−TΔS, using the liner approximation of temperature dependence of ΔG (Van’t Hoff diagram).

[1] = test system: human neutrophil elastase; assay: SPR interaction with neutrophil elastase; format: binding; conditions: for SPR binding to neutrophil elastase (in words): peptide immobilized on CM4 chip; for ka, association rate constant / kd, dissociation rate constant: protease 1 nM to 5 μM
Procedure: as §1, §2

rKv1.2 = assay: Two-electrode voltage clamp, rKv1.2 in X. laevis oocytes; format: cell-based; conditions: 10 μM, 18–22 °C, n ≥ 3
Procedure: (§3) For the expression of the voltage-gated potassium channels (rKv1.1, rKv1.2, hKv1.3, rKv1.4, rKv1.5, rKv1.6, Shaker IR and hERG) in X. laevis oocytes, the linearized plasmids were transcribed using the T7 or SP6 mMESSAGE-mMACHINE transcription kit (Ambion, USA). The harvesting of stage V–VI oocytes from an anaesthetized female X. laevis frog was previously described. Oocytes were injected with 50 nl of cRNA at a concentration of 1 ng/nl using a micro-injector (Drummond Scientific, USA). The oocytes were incubated in a solution containing (in mM): NaCl, 96; KCl, 2; CaCl2, 1.8; MgCl2, 2; HEPES, 5 (pH 7.4), supplemented with 50 mg/l gentamycin sulfate.
(§4) Two-electrode voltage-clamp recordings were performed at room temperature (18–22 °C) using a Geneclamp 500 amplifier (Molecular Devices, USA) controlled by a pClamp data acquisition system (Axon Instruments, USA), as described in[47]. Whole cell currents from oocytes were recorded 1–4 days after injection. Bath solution composition was ND96 (in mM): NaCl, 96; KCl, 2; CaCl2, 1.8; MgCl2, 2 and HEPES, 5 (pH 7.4). Voltage and current electrodes were filled with 3 M KCl. The resistances of both electrodes were kept between 0.7 and 1.5 MΩ. […] All data were analysed using pClamp Clampfit 10.0 (Molecular Devices, Downingtown, PA, USA) and Origin 7.5 software (Originlab, Northampton, MA, USA).

hKv1.3 = assay: Two-electrode voltage clamp, hKv1.3 in X. laevis oocytes; format: cell-based; conditions: 10 μM, 18–22 °C, n ≥ 3
Procedure: as §3, §4

rKv1.4 = assay: Two-electrode voltage clamp, rKv1.4 in X. laevis oocytes; format: cell-based; conditions: 10 μM, 18–22 °C, n ≥ 3
Procedure: as §3, §4

rKv1.6 = assay: Two-electrode voltage clamp, rKv1.6 in X. laevis oocytes; format: cell-based; conditions: 10 μM, 18–22 °C, n ≥ 3
Procedure: as §3, §4

Shaker IR = assay: Two-electrode voltage clamp, Shaker IR in X. laevis oocytes; format: cell-based, Drosophila; conditions: 10 μM, 18–22 °C, n ≥ 3
Procedure: as §3, §4

hERG = assay: Two-electrode voltage clamp, hERG in X. laevis oocytes; format: cell-based; conditions: 10 μM, 18–22 °C, n ≥ 3
Procedure: as §3, §4

[2] = test system: murine neuroblastoma Neuro2a cells; assay: 6-OHDA-induced cytotoxicity, cell viability (MTT); format: cell-based; conditions: for Increase of cell viability relative to cells treated with 6-OHDA: 10 μM peptide, 30 min before 6-OHDA 25 µM, mean of three independent experiments
Procedure: Effects of rHCIQ2c1 and rHCIQ4c7 were studied using murine neuroblastoma Neuro2a cells in the presence of 6-OHDA (25 µM). After incubation of Neuro2a cells with recombinant peptides and 6-OHDA for 24 h, the cell viability was evaluated using MTT assay.
The cytoprotective activities of peptides was examined, as described previously. Neuro2a murine neuroblastoma cells (ATCC CCL-131) (American Type Culture Collection, Virginia, USA) were cultivated in DMEM medium (BioloT, Russia) with 10% of fetal bovine serum (FBS, BioloT, Russia) and 80 µg/ml gentamicine (BioloT, Russia). The cells were seeded onto 96-well plate at concentration of 1 × 10^3 cells per well. Substances were added at different concentrations, and then cells were incubated for 30 min at 37 °C and 5% CO2. Cells were treated with 6-OHDA (25 μM) for 24 h at 37 °C with 5% CO2. Thereafter, medium was replaced with clean serum-free medium, and cells were treated with 3-(4,5-dimethylthiazol-2-yl)-2,5-diphenyltetrazolium bromide (MTT) for 4 h[77]. Then the medium was collected and whole cells were lysed in 100% dimethylsulfoxide (DMSO), the absorbance was measured at 570 nm using Multiscan FC (Thermo Fisher Scientific, USA). […] The results were expressed as the mean ± SD of three independent experiments.

[3] = α-chymotrypsin, SPR Biacore 3000, peptide immobilized on CM4 chip, HBS pH 7.4, 25 °C, protease 1 nM to 5 μM
[4] = neutrophil elastase, SPR Biacore 3000, peptide immobilized on CM4 chip, HBS pH 7.4, 25 °C

Row | Substance | SPR binding to α-chymotrypsin (in words) (α-chymotrypsin) | SPR binding to neutrophil elastase (in words) ([1]; SPR) | KA, association constant [1, 4] [M⁻¹] | ka, association rate constant [1, 4] [s/M] | kd, dissociation rate constant [1, 4] [s⁻¹] | Activity on Kv1.2 (rKv1.2) | Activity on Kv1.3 (hKv1.3) | Activity on Kv1.4 (rKv1.4) | Activity on Kv1.6 (rKv1.6) | Activity on Shaker IR (Shaker IR) | Activity on hERG (hERG) | Increase of cell viability relative to cells treated with 6-OHDA ([2]; 24 h, MTT) [%] | Toxicity to Neuro2a cells ([2]; 10 μM, MTT) | also measured
1 | rHCIQ2c1: recombinant Kunitz-peptide of Heteractis crispa, most prevalent isoform, mature peptide 58 aa, expressed in E. coli (IQGNICSEPKKVGRCRGSFPRFYFDSETGKCTPFIYGGCGGNGNNFETLHACRAICRA; ends and bridges not checked; cysteine pairing not given here) | specifically binds to all target proteinases | specifically binds to all target proteinases | 7.9e+06 | 68000 | 0.00861 | neither 10 μM of rHCIQ2c1 nor rHCIQ4c7 exerted any activity on the Kv channels | neither 10 μM of rHCIQ2c1 nor rHCIQ4c7 exerted any activity on the Kv channels | neither 10 μM of rHCIQ2c1 nor rHCIQ4c7 exerted any activity on the Kv channels | neither 10 μM of rHCIQ2c1 nor rHCIQ4c7 exerted any activity on the Kv channels | neither 10 μM of rHCIQ2c1 nor rHCIQ4c7 exerted any activity on the Kv channels | neither 10 μM of rHCIQ2c1 nor rHCIQ4c7 exerted any activity on the Kv channels | 47 | non-toxic | KA, association constant (α-chymotrypsin; α-chymotrypsin, SPR Biacore 3000, peptide immobilized on CM4 chip, HBS pH 7.4, 25 °C): 1.03e+07 M⁻¹; ka, association rate constant (α-chymotrypsin; [3]): 76900 s/M; kd, dissociation rate constant (α-chymotrypsin; [3]): 0.00749 s⁻¹; Kd (α-chymotrypsin; α-chymotrypsin, SPR Biacore 3000, peptide immobilized on CM4 chip, HBS pH 7.4, 25 °C, read-out: KD, dissociation constant): 97.4 nM; Significance of effect on viability of 6-OHDA-treated cells ([2]; 10 μM, 6-OHDA 25 µM, 24 h, * p < 0.05): The reliable effect was revealed; Concentration of maximum cytoprotective activity ([2]; 6-OHDA 25 µM, 24 h, MTT): 10 µM; Dose-response of cytoprotective effect ([2]; 6-OHDA 25 µM, 24 h, MTT): linear dose-dependent character
2 | rHCIQ4c7: recombinant Kunitz-peptide of Heteractis crispa, isoform with the rare substitution Gly17Glu | bounds to trypsin and elastase only | bounds to trypsin and elastase only | 1.05e+06 | 11900 | 0.0114 | neither 10 μM of rHCIQ2c1 nor rHCIQ4c7 exerted any activity on the Kv channels | neither 10 μM of rHCIQ2c1 nor rHCIQ4c7 exerted any activity on the Kv channels | neither 10 μM of rHCIQ2c1 nor rHCIQ4c7 exerted any activity on the Kv channels | neither 10 μM of rHCIQ2c1 nor rHCIQ4c7 exerted any activity on the Kv channels | neither 10 μM of rHCIQ2c1 nor rHCIQ4c7 exerted any activity on the Kv channels | neither 10 μM of rHCIQ2c1 nor rHCIQ4c7 exerted any activity on the Kv channels | 14 | non-toxic | KD with elastase relative to rHCIQ2c1 ([1]; SPR, 25 °C): binding with elastase differed insignificantly; Kd ([1]; neutrophil elastase, SPR Biacore 3000, peptide immobilized on CM4 chip, HBS pH 7.4, 25 °C, read-out: KD, dissociation constant): 955 nM
